Measurements as given in patent US11963959B2, “Inhibitors for coronavirus” (Southwest Research Institute, priority 2021, dated 2024).
Read-outs that look alike come from different tables or passages of the source.

Columns and labels:
[1] = tested on: SARS-CoV-2 (USA-WA1/2020); experiment: microbe, parasite or virus in culture; assay type: cell-based; conditions: for EC50 / EC90: Severe acute respiratory syndrome coronavirus 2, Vero C1008; for SI: selectivity index=CC50/EC50
in vitro = conditions: African green monkey
[2] = PK studies in mice, subcutaneous twice-a-day dosing, plasma and lung; assay type: in vivo; set-up: Tmax: unit not given here; conditions: for AUC / Cmax / half-life: mouse, sc
Experimental: In addition to the above, pharmokinetic (PK) studies have been completed on additional representative compounds of the pyyroloquinazolines noted herein. More specifically, pharmokinetic studies were conducted for Compound 8, 7-(2-(fluorobenzyl)-7H-pyrrolo[3,2-f]quinazoline-1,3-diamine having the following structure:
(§1) Reference is therefore made to FIG. 8 which provides the animal (mice) compound concentration versus time plots in blood plasma for dosing of Compound 8 at 10 mg/kg, subcutaneous, twice-a-day, at time points 0, 0.5, 1, 2, 4, 8, 12 hours post dose up to 36 hours. FIG. 9 provides the animal (mice) compound concentration versus time plots also for Compound 8 in the lung at 10 mg/kg, subcutaneous, twice-a-day, at time points 0, 0.5, 1, 2, 4, 8, 12 post dose up to 36 hours.
as §1, with “FIG. 10” for “FIG. 8”, “Compound 9” for “Compound 8”, “at 25” for “at 10”, “FIG. 11” for “FIG. 9”
(§2) Reference is made to FIG. 12 which provides the animal (mice) compound concentration versus time plots in blood plasma for dosing of Compound 10 at 25 mg/kg, subcutaneous, twice-a-day, at time points 0, 0.5, 1, 2, 4, 8, 12 hours post dose up to 36 hours. FIG. 13 provides the animal (mice) compound concentration versus time plots also for Compound 10 in the lung at 25 mg/kg, subcutaneous, twice-a-day, at time points 0, 0.5, 1, 2, 4, 8, 12 hours post dose up to 36 hours.
Reference is made to FIG. 14 which provides the animal (mice) compound concentration versus time plots in blood plasma for dosing of Compound 11 at 25 mg/kg, subcutaneous, twice-a-day, at time points 0, 0.5, 1, 2, 4, 8, 12 hours post dose up to 36 hours. FIG. 15 provides the animal (mice) compound concentration versus time plots also for Compound 11 in the lung at 25 mg/kg, subcutaneous, twice-a-day, at time points 0, 0.5, 1, 2, 4, 8, 12 hours post does up to 36 hours.
as §2, with “FIG. 16” for “FIG. 12”, “Compound 12 at” for “Compound”, “10” for “10 at 25”, “FIG. 17” for “FIG. 13”, “Compound 12” for “Compound 10”, “at 10” for “at 25”

[3] = Table 1, SARS-CoV-2 strain, VeroE6, two biological replicates and 8 technical replicates, read-out: EC50
[4] = Table 1, SARS-CoV-2 strain, VeroE6, two biological replicates and 8 technical replicates, read-out: EC90
[5] = Table 2, SARS-CoV-2 strain, VeroE6, read-out: EC50
[6] = Table 2, SARS-CoV-2 strain, VeroE6, read-out: EC90
[7] = Table 7, SARS-CoV-2 strain, VeroE6, read-out: EC50
[8] = Table 7, SARS-CoV-2 strain, VeroE6, read-out: EC90
[9] = footnote of PK table, read-out: EC50
[10] = footnote of PK table, read-out: EC90
[11] = 10 mg/kg subcutaneous twice-a-day
[12] = lung, 10 mg/kg subcutaneous twice-a-day
[13] = plasma, 10 mg/kg subcutaneous twice-a-day
[14] = 25 mg/kg subcutaneous twice-a-day
[15] = lung, 25 mg/kg subcutaneous twice-a-day
[16] = plasma, 25 mg/kg subcutaneous twice-a-day

## Nc1nc(N)c2c(ccc3c2ccn3Cc2ccccc2C(F)(F)F)n1 [Compound 1, 7-(2-(trifluoromethyl)benzyl)-7H-pyrrolo[3,2-f]quinazoline-1,3-diamine]
[1]
  EC50: 30 ± 10 nM
  EC90: 70 ± 30 nM
[1]; Table 1
  SI: 66.8
In vitro
  CC50: 2000 ± 250 nM

## Cc1ccccc1Cn1ccc2c3c(N)nc(N)nc3ccc21 [Compound 2, 7-(2-methylbenzyl)-7H-pyrrolo[3,2-f]quinazoline-1,3-diamine]
[1]; [3]
  EC50: 20 ± 4 nM
[1]; [4]
  EC90: 32 ± 50 nM
[1]; Table 1
  SI: 245
In vitro
  CC50: 4940 ± 550 nM

## Cc1cc2c3c(N)nc(N)nc3ccc2n1Cc1ccc(C#N)cc1 [Compound 3, 4-((1,3-diamino-8-methyl-7H-pyrrolo[3,2-f]quinazolin-7-yl)methyl)benzonitrile]
[1]; [3]
  EC50: 13 ± 5 nM
[1]; [4]
  EC90: 30 ± 20 nM
[1]; Table 1
  SI: 477.3
In vitro
  CC50: 6410 ± 700 nM

## C=CCn1ccc2c3c(N)nc(N)nc3ccc21 [Compound 4, 7-allyl-7H-pyrrolo[3,2-f]quinazoline-1,3-diamine]
[1]; [3]
  EC50: 470 ± 210 nM
[1]; [4]
  EC90: 850 ± 460 nM
[1]; Table 1
  SI: >63.8
In vitro
  CC50: > 30000 nM

## O=C(c1sc(-c2ccccc2)nc1-c1ccccc1)N1C[C@H]2CNC[C@H]2C1 [Compound 5, (2,4-diphenylthiazol-5-yl)((3aR,6aS)-hexahydropyrrolo[3,4-c]pyrrol-2(1H)-yl)methanone]
[1]; [5]
  EC50: 8300 nM
[1]; [6]
  EC90: 75000 nM
[1]; Table 2
  SI: 9.6
In vitro
  CC50: 79700 nM

## O=C(c1sc(-c2ccccc2)nc1-c1ccc(Cl)cc1)N1C[C@H]2CNC[C@H]2C1 [Compound 6, (4-(4-chlorophenyl)-2-phenylthiazol-5-yl)((3aR,6aS)-hexahydropyrrolo[3,4-c]pyrrol-2(1H)-yl)methanone]
[1]; [5]
  EC50: 4200 nM
[1]; [6]
  EC90: 13300 nM
[1]; Table 2
  SI: >4.0
In vitro
  CC50: 17100 nM

## O=C(c1sc(-c2ccc(Cl)cc2)nc1-c1ccccc1)N1C[C@H]2CNC[C@H]2C1 [Compound 7, (2-(4-chlorophenyl)-4-phenylthiazol-5-yl)((3aR,6aS)-hexahydropyrrolo[3,4-c]pyrrol-2(1H)-yl)methanone]
[1]; [5]
  EC50: 4700 nM
[1]; [6]
  EC90: 7960 nM
[1]; Table 2
  SI: 2.3
In vitro
  CC50: 11000 nM

## Nc1nc(N)c2c(ccc3c2ccn3Cc2ccccc2F)n1 [Compound 8]
[1]; [7]
  EC50: 50 ± 31 nM
[1]; [8]
  EC90: 160 ± 142 nM
[1]; [9]
  EC50: 0.0246 µg/mL
[1]; [10]
  EC90: 0.0799 µg/mL
[1]; Table 7
  SI: 98
[2]; [11]
  tolerability: relatively well-tolerated
[2]; [12]
  Time > EC90: 98.3%
  Tmax: 98.3
  AUC: 13000 ng·h/mL
  Cmax: 4140 ng/mL
  half-life: 3.74 h
[2]; [13]
  AUC: 2140 ng·h/mL
  Cmax: 675 ng/mL
  half-life: 3.1 h
  Time > EC90: 65%
  Tmax: 1.4
In vitro
  CC50: 4890 ± 4700 nM

## Nc1nc(N)c2c(ccc3c2ccn3Cc2cccnc2)n1 [Compound 9, 7-(pyridin-3-ylmethyl)-7H-pyrrolo[3,2-f]quinazoline-1,3-diamine]
[1]; [7]
  EC50: 160 ± 61 nM
[1]; [8]
  EC90: 360 ± 193 nM
[1]; [9]
  EC50: 0.058 µg/mL
[1]; [10]
  EC90: 0.142 µg/mL
[1]; Table 7
  SI: >187
[2]; [14]
  tolerability: relatively well-tolerated
[2]; [15]
  Time > EC90: 73%
  Tmax: 1.9
  AUC: 12400 ng·h/mL
  Cmax: 3320 ng/mL
  half-life: 2.8 h
[2]; [16]
  AUC: 1190 ng·h/mL
  Cmax: 365 ng/mL
  half-life: 2.1 h
  Time > EC90: 55%
  Tmax: 1.6
In vitro
  CC50: > 30000 nM

## Nc1nc(N)c2c(ccc3c2ccn3Cc2ccncc2)n1 [Compound 10, 7-(pyridin-4-ylmethyl)-7H-pyrrolo[3,2-f]quinazoline-1,3-diamine]
[1]; [7]
  EC50: 80 ± 12 nM
[1]; [8]
  EC90: 240 ± 110 nM
[1]; [9]
  EC50: 0.0813 µg/mL
[1]; [10]
  EC90: 0.221 µg/mL
[1]; Table 7
  SI: >375
[2]; [14]
  tolerability: relatively well-tolerated
[2]; [15]
  Time > EC90: 63%
  Tmax: 1.2
  AUC: 7820 ng·h/mL
  Cmax: 2910 ng/mL
  half-life: 2.7 h
[2]; [16]
  AUC: 1600 ng·h/mL
  Cmax: 678 ng/mL
  half-life: 2.1 h
  Time > EC90: 44%
  Tmax: 1.2
In vitro
  CC50: > 30000 nM

## Nc1nc(N)c2c(ccc3c2ccn3Cc2ccccn2)n1 [Compound 11, 7-(pyridin-2-ylmethyl)-7H-pyrrolo[3,2-f]quinazoline-1,3-diamine]
[1]; [7]
  EC50: 120 ± 50 nM
[1]; [8]
  EC90: 360 ± 230 nM
[1]; [9]
  EC50: 0.0435 µg/mL
[1]; [10]
  EC90: 0.142 µg/mL
[1]; Table 7
  SI: 128
[2]; [14]
  tolerability: relatively well-tolerated
[2]; [15]
  Time > EC90: 85%
  Tmax: 1.28
  AUC: 14600 ng·h/mL
  Cmax: 3270 ng/mL
  half-life: 3.3 h
[2]; [16]
  AUC: 1170 ng·h/mL
  Cmax: 348 ng/mL
  half-life: 2.6 h
  Time > EC90: 45%
  Tmax: 1.6
In vitro
  CC50: 15500 ± 10600 nM

## Nc1nc(N)c2c(ccc3c2ccn3CC2CCCCC2)n1 [Compound 12, 7-(cyclohexylmethyl)-7H-pyrrolo[3,2-f]quinazoline-1,3-diamine]
[1]; [7]
  EC50: 120 ± 87 nM
[1]; [8]
  EC90: 320 ± 320 nM
[1]; [9]
  EC50: 0.0177 µg/mL
[1]; [10]
  EC90: 0.0325 µg/mL
[1]; Table 7
  SI: 41
[2]; [11]
  tolerability: relatively well-tolerated
[2]; [12]
  Time > EC90: 100%
  Tmax: 1.4
  AUC: 34100 ng·h/mL
  Cmax: 10100 ng/mL
  half-life: 3.1 h
[2]; [13]
  AUC: 968 ng·h/mL
  Cmax: 348 ng/mL
  half-life: 4.2 h
  Time > EC90: 64%
  Tmax: 1.4
In vitro
  CC50: 4910 ± 200 nM
